The text below walks through data of patent US10058622B2, “PH-sensitive peptides and their nanoparticles for drug delivery” (THE TRUSTEES OF THE UNIVERSITY OF PENNSYLVANIA, priority 2013, dated 2018).

For data set [1] the following is noted: cited from earlier work.
The nature of data set [2]: Solubility of hydrophobic drugs in water versus concentration in nanoparticles. It counts as physicochemical. To be noted: nanoparticles of Example 9 / Example 10.
Data set [3] concerns HCC1806 tumor (triple-negative breast cancer). As to the kind of experiment: Tumor growth in HCC1806 tumor inoculated mice. Format: in vivo. To be noted: 100 mg LND/kg in tris-glycine buffer, intraperitoneal injection.
Data set [4] in a line: Solubility of peptides at pH 7.4 and 6.5 (Example 13). It counts as physicochemical. The text has this: Five pH sensitive peptides of the following sequences, […] (SEQ ID NO: 17), […] (SEQ ID NO: 18), […] (SEQ ID NO: 19), […] (SEQ ID NO: 20) and […] (SEQ ID NO: 8) were similarly synthesized by the method described in Example (1). Peptides […] (SEQ ID NO: 17) and […] (SEQ ID NO: 18) were soluble at both pH 7.4 and 6.5. Peptides […] (SEQ ID NO: 19) and […] (SEQ ID NO: 20) were insoluble at both pH 7.4 and 6.5, with […] (SEQ ID NO: 20) forming nanoparticles of about 80 nm. Peptide […] (SEQ ID NO: 8) was insoluble above about pH 6.7 forming nanoparticles of about 50 nm and soluble below about pH6.7; i.e., it undergoes a pH-induced transition at about pH6.7. Therefore, the pH ranges of the hydrophobic/hydrophilic transition and the corresponding soluble/insoluble transition of peptides and their nanoparticles may be adjusted by changing one or more features of the peptide, e.g., sequence and length, and the hydrophobic block and the functional block to which the peptide is conjugated.

Data set [5] in a line: Cytotoxicity by lactic dehydrogenase (LDH) assay. Format: cell-based, human. Conditions: human, SKOV3 cells, read-out: cell viability. Here is the method: (§1) FIGS. 4A and 4B show lack of cytotoxicity of a pH sensitive peptide solution for SKOV3 cells.
(§2) Cytotoxicity, i.e., the effect of peptide on tumor cell viability, was determined using lactic dehydrogenase (LDH) assay. Cells (SKOV3 cells, a human carcinogenic cell line from ovarian cancer) were plated in 96-well plates (10,000 per well for SKOV3) and allowed to adhere overnight at 37° C. in a humidified atmosphere of 5% CO2. […] The medium was next removed, the LDH assay lysis solution was added, and the wells were kept at 37° C. for another 45 minutes. Finally, the LDH assay mixture was added and the wells were held at room temperature for still another 20-30 minutes before the absorbance was spectrophotometrically measured at a wavelength of 490 nm on a SpectraMax (Molecular Devices). […] This was confirmed by the spectrophotometric intensity of dead cells, shown in the lower panel, which was near zero, meaning it is indistinguishable from that of the control. Therefore, the peptide itself is non-toxic and biocompatible.

In the next data set the test system is SKOV3 cells. As to the kind of experiment: Cytotoxicity by lactic dehydrogenase (LDH) assay. It counts as cell-based, human. To be noted: control set as zero. Here is the method:
as §1, §2

Data set [6] is described as follows: Solubility of peptide nanoparticles as a function of pH (Example 1, FIG. 1B). To be noted: phosphate buffer solution. Format: physicochemical. The source says:
A pH sensitive peptide (Ac-[…]-NH2) (SEQ ID NO: 9) was synthesized by the solid phase method. Amino acids blocked by the fluorinylmethyloxycarbonyl (FMOC) group were utilized to couple to a Rink amide resin. Piperideine, N-methylmorpholine (NMM), and hexafluorophosphate (HBTU) in dimethylformamide were used to remove the FMOC group and activate amino acids. The peptide was acetylated with acetic anhydride at the N-terminus and cleaved with trifluoroacetic acid/triisopropylsilane/water (95%/2.5%/2.5%). […] Such peptide spontaneously forms nanoparticles at pH 7.4. The solubility of nanoparticles was measured as a function of pH. […] Therefore, there is a sharp transition spanning over a pH interval of only 0.1. The increasing solubility at lower pH is believed to be due to the increasing protonation of the histidine group.

Where two headings read alike, the source gives them in different places.

As to `O=C(O)c1nn(Cc2ccc(Cl)cc2Cl)c2ccccc12` [LND, lonidamine], the solubility in water entry in data set [1] was “about 17 μg/ml”. The “concentration of drug in pH-sensitive peptide nanoparticle preparation” value in data set [2] is given as 1 mg/ml. In data set [3], the “duration of tumor growth delay effect compared to control” value is recorded as “about 10 days”.
On to `CC(=O)O[C@H]1C(=O)[C@@]2(C)[C@H]([C@H](OC(=O)c3ccccc3)[C@]3(O)C[C@H](OC(=O)[C@H](O)[C@@H](NC(=O)c4ccccc4)c4ccccc4)C(C)=C1C3(C)C)[C@]1(OC(C)=O)CO[C@@H]1C[C@@H]2O` [paclitaxel], for which, in data set [1], the solubility in water entry was “about 0.3 μg/ml”. In addition, in data set [2], the “concentration of drug in pH-sensitive peptide nanoparticle preparation” value is recorded as 1 mg/ml.
Turning to Ac-KGGHFFHGHFFHGK-NH2, the solubility of peptide result in data set [4] (pH 6.5) and in data set [4] (pH 7.4) was “soluble” each time.
Ac-HFFHGHFFHGHFFHGKK-NH2: the viability at 3 h in data set [5] (pH 6.8, 3 hours with peptide then 24 hours) is approximately 100%; in data set [5] (pH 7.4, 3 hours with peptide then 24 hours), approximately 100%. The “spectrophotometric intensity of dead cells (LDH release)” value in the data set with SKOV3 cells is “near zero”. In addition, the “solubility of peptide and nanoparticle” value is given as “completely insoluble” in data set [6] (above pH 7.2), “mostly insoluble” in data set [6] (at pH 7.0), “completely soluble” in data set [6] (below pH 6.7) and “mostly soluble” in data set [6] (below pH 6.9). The “pH interval spanned by the sharp solubility transition” value in data set [6] came to 0.1. Moreover, the “pH of sudden fall indicating dissolution of peptide construct from nanoparticle” value in data set [6] (FIG. 1B) is given as 6.9.
Regarding Ac-GFFFHGFFFH-NH2, the solubility of peptide entry in data set [4] (pH 6.5) and in data set [4] (pH 7.4) was “insoluble” throughout.
Take Ac-GHFFHGFFFH-NH2: the solubility of peptide result in data set [4] (pH 6.5) and in data set [4] (pH 7.4) was “insoluble” in each case.
On to Ac-GHFFHGHFFH-NH2, for which the solubility of peptide entry in data set [4] (pH 6.5) and in data set [4] (pH 7.4) was “soluble” in each case.

The viability is a per cent measure of how many cells are alive, often set against a control.
